Assays:
[1] = system: HEK293-TOP cells; assay: TOPFlash Wnt reporter assay; format: cell-based; conditions: 18 h
Method: Figure 4. Identification of functional properties of KY19382 in activating the Wnt/β-catenin pathway. (A) Chemical structure of KY19382. (B) In vitro binding assay to analyze the effect of KY19382 on CXXC5–DVL interaction (mean ± SEM, n = 3). The IC50 value was determined from the dose–response curve. (C) In vitro kinase assay to analyze the effect of KY19382 on kinase activity of GSK3β (mean ± SEM, n = 3). The IC50 value was determined from the dose–response curve. (D) Analyses of TOPFlash activity in HEK293 reporter cells grown with the indicated concentrations of KY19382 for 18 h (mean ± SEM, n = 4; t test, **P < 0.005 and ***P < 0.0005 versus DMSO-treated control). (E) Immunoblot analyses with the indicated antibodies in ATDC5 cells treated with I3O or KY19382 for 24 h. (F) Immunoblot analyses of whole cell lysates immunoprecipitated with anti-Myc in ATDC5 cells treated with 0.1 μM KY19382 for 4 h after transfection with pCMV-FLAG-DVL1 and pcDNA3.1-CXXC5-Myc. (G) Immunocytochemical staining (left) and quantitative analyses (mean ± SEM, n = 3; t test, **P < 0.005) (right) for β-catenin in ATDC5 cells treated with 0.1 μM KY19382 for 48 h. Scale bar, 100 μm.
HEK293-TOP cells were seeded into each well of a 24-well plate. The cells were treated with individual compounds at indicated concentration and cultured for 18 h. […]

[2] = target: GSK3β (human) (Homo sapiens, UniProt P49841); assay: GSK3β kinase assay; format: biochemical; conditions: dose–response curve, n = 3; read-out: IC50, in vitro GSK3β activity
Method: GSK3β (human) was incubated with 8 mM MOPS (pH 7.0), 0.2 mM EDTA, 20 μM […](p) EDEEE (phospho-GS2 peptide), 10 mM Mg acetate, and [γ-33P-ATP] (specific activity ∼500 cpm/pmol, concentration as required). The reaction was initiated by the addition of the Mg-ATP mixture. After incubation for 40 min at room temperature, the reaction was stopped by addition of 3% phosphoric acid solution. 10 μl of the reaction was then spotted onto a P30 filtermat and washed three times for 5 min in 50 mM phosphoric acid and once in methanol before drying and scintillation counting.

[3] = system: tibial growth plate; assay: Estrogen-induced growth plate senescence in Cxxc5+/+ and Cxxc5−/− mice; format: in vivo, mouse; conditions: E2 cypionate 70 μg/kg i.m. once a week for 3 wk
Method: Figure 2. The effects of estrogen on CXXC5 expression and the mediation of growth plate senescence. (A) Immunoblotting (upper) and quantitative analyses (mean ± SEM, n = 3) (lower) in C28/I2 cells treated with 100 nM E2 (17β-estradiol) for 0, 1, 3, 6, 24, 48, or 72 h. (B) Immunocytochemical staining (left) and quantitative analyses of the fluorescent intensity (mean ± SEM, n = 3; t test, **P < 0.005 and ***P < 0.0005) (right) in C28/I2 cells treated with 100 nM E2 for 40 h. Scale bars, 100 μm. (C–E) Tibial organ cultures (E15.5) incubated with 100 nM E2 for 6 d. Representative images at 6 d (C, left) and quantitative analyses of the growth changes (mean ± SEM, n = 5; t test, ***P < 0.0005) (C, right). Scale bar, 1 mm. H&E staining (D, left) and quantification of each zone height (mean ± SEM, n = 5; t test, *P < 0.05 and **P < 0.005) (D, right) in the growth plate. Scale bar, 200 μm. IHC analyses of β-catenin and CXXC5 (E). Scale bars, 50 μm. (F) 3-wk-old Cxxc5^+/+ and Cxxc5^−/− mice were treated with E2 cypionate (70 μg/kg) by i.m. injection once a week for 3 wk (n = 3–4). Representative images of H&E staining and IHC analyses for BrdU, β-catenin, and CXXC5 in the growth plates of proximal tibiae are shown. The area within the dashed lines indicates the growth plate zone. Black and white scale bars, 50 μm. Yellow scale bar, 20 μm. RZ, resting zone; PZ, proliferative zone; HZ, hypertrophic zone. […]

GSK3β (human), sequence (P49841 whole entry): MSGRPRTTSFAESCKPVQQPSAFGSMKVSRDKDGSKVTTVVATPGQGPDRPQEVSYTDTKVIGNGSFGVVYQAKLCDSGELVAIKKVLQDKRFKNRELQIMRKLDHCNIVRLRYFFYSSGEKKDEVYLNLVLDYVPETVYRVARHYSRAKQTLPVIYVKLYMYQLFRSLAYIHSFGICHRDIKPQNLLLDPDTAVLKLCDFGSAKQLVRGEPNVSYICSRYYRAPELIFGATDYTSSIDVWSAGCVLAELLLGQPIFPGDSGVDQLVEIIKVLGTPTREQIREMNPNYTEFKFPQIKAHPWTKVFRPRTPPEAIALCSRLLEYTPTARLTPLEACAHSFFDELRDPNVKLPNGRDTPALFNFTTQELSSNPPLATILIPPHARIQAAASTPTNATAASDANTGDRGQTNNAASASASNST

CON=C1C(=C2C(=O)Nc3cc(Cl)c(Cl)cc32)Nc2ccccc21 [KY19382, 5,6-dichloroindirubin-3′-methoxime]
TOPFlash Wnt reporter activity [1]: strong enhancement | IC50 [2]: 10 nM

C[C@]12CC[C@@H]3c4ccc(O)cc4CC[C@H]3[C@@H]1CC[C@@H]2O [E2, 17β-estradiol]
structural senescence of the tibial growth plate [3]: hardly observed
